Experimental data: the supplement of paper PMC10307832

Assays:
Assay in all cases: relative viability (nuclei count vs DMSO), 5 days (fraction); higher = more cells survive
EKVX = test system: EKVX
Summary of the method: (§1)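 The day after seeding in 1536-well plates, lung cancer cell lines were treated by pin tool with a single drug, or with a fixed anchor-drug dose together with five library-drug doses (not always all listed) in √10 steps. After 5 days, a combined fix-and-stain solution (final 0.05% Triton X-100, 1% formaldehyde, 1 ug/ml Hoechst) was added. Nuclei counted on 4× images gave relative viability as treated counts over vehicle counts, reported as the median of duplicate plates.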

LCLC-97TM1 = test system: LCLC-97TM1
Summary of the method: as §1

NCI-H1437 = test system: NCI-H1437
Summary of the method: as §1

NCI-H1650 = test system: NCI-H1650
Summary of the method: as §1

NCI-H1666 = test system: NCI-H1666
Summary of the method: as §1

NCI-H1792 = test system: NCI-H1792
Summary of the method: as §1

NCI-H1915 = test system: NCI-H1915
Summary of the method: as §1

NCI-H1975 = test system: NCI-H1975
Summary of the method: as §1

NCI-H2342 = test system: NCI-H2342
Summary of the method: as §1

NCI-H23 = test system: NCI-H23
Summary of the method: as §1

NCI-H322M = test system: NCI-H322M
Summary of the method: as §1

NCI-H358 = test system: NCI-H358
Summary of the method: as §1

NCI-H441 = test system: NCI-H441
Summary of the method: as §1

NCI-H460 = test system: NCI-H460
Summary of the method: as §1

NCI-H520 = test system: NCI-H520
Summary of the method: as §1

NCI-H522 = test system: NCI-H522
Summary of the method: as §1

NCI-H647 = test system: NCI-H647
Summary of the method: as §1

NCI-H661 = test system: NCI-H661
Summary of the method: as §1

NCI-H727 = test system: NCI-H727
Summary of the method: as §1

NCI-H838 = test system: NCI-H838
Summary of the method: as §1

PC-3 [JPC-3] = test system: PC-3 [JPC-3]
Summary of the method: as §1

SK-LU-1 = test system: SK-LU-1
Summary of the method: as §1

Cc1cn(-c2cc(NC(=O)c3ccc(C)c(Nc4nccc(-c5cccnc5)n4)c3)cc(C(F)(F)F)c2)cn1 [Nilotinib] + Nc1ncn([C@H]2C[C@H](O)[C@@H](CO)O2)c(=O)n1 [Decitabine] (partner 2 µM)
relative viability (EKVX; first compound 0.001 µM): 0.307 | relative viability (EKVX; first compound 0.003162 µM): 0.413 | relative viability (EKVX; first compound 0.01 µM): 0.394 | relative viability (EKVX; first compound 0.03162 µM): 0.305 | relative viability (EKVX; first compound 0.1 µM): 0.648 | relative viability (LCLC-97TM1; first compound 0.001 µM): 0.201 | relative viability (LCLC-97TM1; first compound 0.003162 µM): 0.283 | relative viability (LCLC-97TM1; first compound 0.01 µM): 0.279 | relative viability (LCLC-97TM1; first compound 0.03162 µM): 0.321 | relative viability (NCI-H1437; first compound 0.001 µM): 0.562 | relative viability (NCI-H1437; first compound 0.003162 µM): 0.632 | relative viability (NCI-H1437; first compound 0.01 µM): 0.625 | relative viability (NCI-H1437; first compound 0.03162 µM): 0.545 | relative viability (NCI-H1437; first compound 0.1 µM): 0.671 | relative viability (NCI-H1650; first compound 0.001 µM): 0.462 | relative viability (NCI-H1650; first compound 0.003162 µM): 0.621 | relative viability (NCI-H1650; first compound 0.01 µM): 0.579 | relative viability (NCI-H1650; first compound 0.03162 µM): 0.588 | relative viability (NCI-H1650; first compound 0.1 µM): 0.757 | relative viability (NCI-H1666; first compound 0.001 µM): 0.698 | relative viability (NCI-H1666; first compound 0.01 µM): 0.697 | relative viability (NCI-H1666; first compound 0.03162 µM): 0.606 | relative viability (NCI-H1666; first compound 0.1 µM): 0.613 | relative viability (NCI-H1792; first compound 0.001 µM): 0.463 | relative viability (NCI-H1792; first compound 0.003162 µM): 0.691 | relative viability (NCI-H1792; first compound 0.01 µM): 0.66 | relative viability (NCI-H1792; first compound 0.03162 µM): 0.403 | relative viability (NCI-H1792; first compound 0.1 µM): 0.633 | relative viability (NCI-H1915; first compound 0.001 µM): 0.28 | relative viability (NCI-H1915; first compound 0.003162 µM): 0.271 | relative viability (NCI-H1915; first compound 0.01 µM): 0.255 | relative viability (NCI-H1915; first compound 0.03162 µM): 0.318 | relative viability (NCI-H1915; first compound 0.1 µM): 0.325 | relative viability (NCI-H1975; first compound 0.001 µM): 0.339 | relative viability (NCI-H1975; first compound 0.003162 µM): 0.393 | relative viability (NCI-H1975; first compound 0.01 µM): 0.383 | relative viability (NCI-H1975; first compound 0.03162 µM): 0.389 | relative viability (NCI-H1975; first compound 0.1 µM): 0.275 | relative viability (NCI-H2342; first compound 0.001 µM): 0.704 | relative viability (NCI-H2342; first compound 0.003162 µM): 0.735 | relative viability (NCI-H2342; first compound 0.01 µM): 0.666 | relative viability (NCI-H2342; first compound 0.03162 µM): 0.591 | relative viability (NCI-H2342; first compound 0.1 µM): 0.754 | relative viability (NCI-H23; first compound 0.001 µM): 0.355 | relative viability (NCI-H23; first compound 0.003162 µM): 0.352 | relative viability (NCI-H23; first compound 0.01 µM): 0.344 | relative viability (NCI-H23; first compound 0.03162 µM): 0.351 | relative viability (NCI-H23; first compound 0.1 µM): 0.273 | relative viability (NCI-H322M; first compound 0.001 µM): 0.724 | relative viability (NCI-H322M; first compound 0.003162 µM): 0.786 | relative viability (NCI-H322M; first compound 0.01 µM): 0.673 | relative viability (NCI-H322M; first compound 0.03162 µM): 0.654 | relative viability (NCI-H322M; first compound 0.1 µM): 0.898 | relative viability (NCI-H358; first compound 0.001 µM): 0.214 | relative viability (NCI-H358; first compound 0.003162 µM): 0.264 | relative viability (NCI-H358; first compound 0.01 µM): 0.229 | relative viability (NCI-H358; first compound 0.03162 µM): 0.195 | relative viability (NCI-H358; first compound 0.1 µM): 0.15 | relative viability (NCI-H441; first compound 0.001 µM): 0.295 | relative viability (NCI-H441; first compound 0.003162 µM): 0.304 | relative viability (NCI-H441; first compound 0.01 µM): 0.284 | relative viability (NCI-H441; first compound 0.03162 µM): 0.367 | relative viability (NCI-H441; first compound 0.1 µM): 0.365 | relative viability (NCI-H460; first compound 0.001 µM): 0.443 | relative viability (NCI-H460; first compound 0.003162 µM): 0.648 | relative viability (NCI-H460; first compound 0.01 µM): 0.56 | relative viability (NCI-H460; first compound 0.03162 µM): 0.325 | relative viability (NCI-H460; first compound 0.1 µM): 0.306 | relative viability (NCI-H520; first compound 0.001 µM): 0.473 | relative viability (NCI-H520; first compound 0.003162 µM): 0.653 | relative viability (NCI-H520; first compound 0.01 µM): 0.613 | relative viability (NCI-H520; first compound 0.03162 µM): 0.564 | relative viability (NCI-H520; first compound 0.1 µM): 0.649 | relative viability (NCI-H522; first compound 0.01 µM): 0.667 | relative viability (NCI-H522; first compound 0.03162 µM): 0.699 | relative viability (NCI-H522; first compound 0.1 µM): 0.539 | relative viability (NCI-H647; first compound 0.001 µM): 0.396 | relative viability (NCI-H647; first compound 0.003162 µM): 0.446 | relative viability (NCI-H647; first compound 0.01 µM): 0.573 | relative viability (NCI-H647; first compound 0.03162 µM): 0.448 | relative viability (NCI-H647; first compound 0.1 µM): 0.528 | relative viability (NCI-H661; first compound 0.001 µM): 0.554 | relative viability (NCI-H661; first compound 0.003162 µM): 0.56 | relative viability (NCI-H661; first compound 0.01 µM): 0.644 | relative viability (NCI-H661; first compound 0.03162 µM): 0.469 | relative viability (NCI-H661; first compound 0.1 µM): 0.546 | relative viability (NCI-H727; first compound 0.001 µM): 0.67 | relative viability (NCI-H727; first compound 0.003162 µM): 0.818 | relative viability (NCI-H727; first compound 0.01 µM): 0.825 | relative viability (NCI-H727; first compound 0.03162 µM): 0.715 | relative viability (NCI-H727; first compound 0.1 µM): 0.606 | relative viability (NCI-H838; first compound 0.001 µM): 0.44 | relative viability (NCI-H838; first compound 0.003162 µM): 0.532 | relative viability (NCI-H838; first compound 0.01 µM): 0.522 | relative viability (NCI-H838; first compound 0.03162 µM): 0.489 | relative viability (NCI-H838; first compound 0.1 µM): 0.637 | relative viability (PC-3 [JPC-3]; first compound 0.001 µM): 0.873 | relative viability (PC-3 [JPC-3]; first compound 0.01 µM): 1 | relative viability (PC-3 [JPC-3]; first compound 0.03162 µM): 0.897 | relative viability (PC-3 [JPC-3]; first compound 0.1 µM): 1.01 | relative viability (SK-LU-1; first compound 0.001 µM): 0.532 | relative viability (SK-LU-1; first compound 0.003162 µM): 0.627 | relative viability (SK-LU-1; first compound 0.01 µM): 0.699 | relative viability (SK-LU-1; first compound 0.03162 µM): 0.424 | relative viability (SK-LU-1; first compound 0.1 µM): 0.532
